Columns and labels:
[1] = test system: panel of 55 breast cancer cell lines; test: Cell growth inhibition assay (Cell Titer Glo, 72 h, 9 doses; GI50, TGI, LC50); type: cell-based, human; conditions: value is the negative log10 of mol/L
[2] = test system: luminal, basal, claudin-low and ERBB2AMP breast cancer cell lines; test: Associations of clinically relevant subtypes and response (non-parametric ANOVA or t-test on GI50 ranks); type: cell-based, human; conditions: for Subtype specificity: Table 6, most sensitive subtype, FDR p<0.20
Text: A central premise of this study is that associations between responses and molecular subtypes observed in preclinical cell line analyses will be recapitulated in the clinic in instances where the predictive molecular features in the cell lines are mirrored in human tumors. We established response-subtype associations by using non-parametric ANOVAs to compare […] values across transcriptional and genomics subtypes.
Differences between GI50s of the groups were compared with a non-parametric ANOVA or t-test, as appropriate, on the ranks. We combined the p-values for the three sets of tests and used false discovery rate (FDR) to correct for multiple testing. For the three-sample test, we performed a post-hoc analysis on the compounds with a significant class effect by comparing each group to all others to determine which group was most sensitive. The p-values for the post-hoc test were FDR-corrected together. In all cases, FDR p<0.20 was deemed significant. […] Analyses were performed in R.

[3] = HCC38 cell line, censored GI50 values
[4] = HCC1395 cell line, censored GI50 values
[5] = HCC1419 cell line, censored GI50 values
[6] = HCC1500 cell line, censored GI50 values
[7] = HCC1806 cell line, censored GI50 values
[8] = HCC1954 cell line, censored GI50 values
[9] = HCC2185 cell line, censored GI50 values
[10] = MDAMB134VI cell line, censored GI50 values
[11] = MDAMB361 cell line, censored GI50 values
[12] = MDAMB436 cell line, censored GI50 values
[13] = MDAMB468 cell line, censored GI50 values
[14] = SUM149PT cell line, censored GI50 values
[15] = SUM159PT cell line, censored GI50 values
[16] = SUM1315MO2 cell line, censored GI50 values
[17] = UACC893 cell line, censored GI50 values

Structure (SMILES): NC(=O)Nc1sc(-c2ccc(F)cc2)cc1C(N)=O [TPCA-1]
- GI50 ([1]; BT20 cell line, censored GI50 values): 4.36
- GI50 [1, 3]: 5.50
- GI50 ([1]; HCC70 cell line, censored GI50 values): 5.44
- GI50 ([1]; HCC1143 cell line, censored GI50 values): 5.07
- GI50 ([1]; HCC1187 cell line, censored GI50 values): 5.67
- GI50 [1, 4]: 5.22
- GI50 [1, 5]: 5.53
- GI50 ([1]; HCC1428 cell line, censored GI50 values): 5.45
- GI50 [1, 6]: 5.39
- GI50 [1, 7]: 5.34
- GI50 [1, 8]: 4.77
- GI50 [1, 9]: 5.36
- GI50 ([1]; HCC3153 cell line, censored GI50 values): 4.87
- GI50 ([1]; LY2 cell line, censored GI50 values): 4.54
- GI50 [1, 10]: 4.79
- GI50 ([1]; MDAMB231 cell line, censored GI50 values): 4.45
- GI50 [1, 11]: 4.18
- GI50 [1, 12]: 5.16
- GI50 [1, 13]: 5.94
- GI50 ([1]; SUM52PE cell line, censored GI50 values): 6.25
- GI50 [1, 14]: 5.78
- GI50 [1, 15]: 5.81
- GI50 [1, 16]: 6.09
- GI50 [1, 17]: 5.21
- GI50 ([1]; cell line 600MPE): 4.18
- GI50 ([1]; cell line AU565): 4.18
- GI50 ([1]; cell line BT20): 4.36
- GI50 ([1]; cell line BT474): 4.18
- GI50 ([1]; cell line BT549): 4.18
- GI50 ([1]; cell line HCC38): 5.50
- GI50 ([1]; cell line HCC70): 5.44
- GI50 ([1]; cell line HCC202): 3.88
- GI50 ([1]; cell line HCC1143): 5.07
- GI50 ([1]; cell line HCC1187): 5.67
- GI50 ([1]; cell line HCC1395): 5.22
- GI50 ([1]; cell line HCC1419): 5.53
- GI50 ([1]; cell line HCC1428): 5.45
- GI50 ([1]; cell line HCC1500): 5.39
- GI50 ([1]; cell line HCC1806): 5.34
- GI50 ([1]; cell line HCC1937): 4.18
- GI50 ([1]; cell line HCC1954): 4.77
- GI50 ([1]; cell line HCC2185): 5.36
- GI50 ([1]; cell line HCC3153): 4.87
- GI50 ([1]; cell line LY2): 4.54
- Subtype specificity [2]: Basal + Claudin-low

Structure (SMILES): COc1cc2ncnc(Nc3cccc(Cl)c3)c2cc1OC [AG1478]
- GI50 ([1]; 600MPE cell line, censored GI50 values): 3.99
- GI50 ([1]; AU565 cell line, censored GI50 values): 4.57
- GI50 ([1]; BT474 cell line, censored GI50 values): 6.17
- GI50 ([1]; BT483 cell line, censored GI50 values): 5.64
- GI50 ([1]; BT549 cell line, censored GI50 values): 4.41
- GI50 ([1]; CAMA1 cell line, censored GI50 values): 4.46
- GI50 [1, 3]: 4.03
- GI50 ([1]; HCC202 cell line, censored GI50 values): 5.75
- GI50 [1, 4]: 4.57
- GI50 [1, 5]: 5.92
- GI50 [1, 6]: 4.58
- GI50 [1, 7]: 4.07
- GI50 ([1]; HCC1937 cell line, censored GI50 values): 4.88
- GI50 [1, 8]: 5.64
- GI50 [1, 9]: 4.33
- GI50 [1, 10]: 4.00
- GI50 ([1]; MDAMB157 cell line, censored GI50 values): 4.47
- GI50 ([1]; MDAMB175VII cell line, censored GI50 values): 6.19
- GI50 [1, 11]: 4.71
- GI50 [1, 12]: 3.99
- GI50 [1, 13]: 4.02
- GI50 ([1]; SKBR3 cell line, censored GI50 values): 4.92
- GI50 [1, 14]: 5.74
- GI50 [1, 15]: 4.77
- GI50 [1, 16]: 5.60
- GI50 ([1]; T47D cell line, censored GI50 values): 4.74
- GI50 [1, 17]: 5.65
- GI50 ([1]; cell line 600MPE): 3.99
- GI50 ([1]; cell line AU565): 4.57
- GI50 ([1]; cell line BT474): 6.17
- GI50 ([1]; cell line BT483): 5.64
- GI50 ([1]; cell line BT549): 4.41
- GI50 ([1]; cell line CAMA1): 4.46
- GI50 ([1]; cell line HCC38): 4.03
- GI50 ([1]; cell line HCC70): 3.94
- GI50 ([1]; cell line HCC202): 5.75
- GI50 ([1]; cell line HCC1143): 3.78
- GI50 ([1]; cell line HCC1187): 3.78
- GI50 ([1]; cell line HCC1395): 4.57
- GI50 ([1]; cell line HCC1419): 5.92
- GI50 ([1]; cell line HCC1428): 3.78
- GI50 ([1]; cell line HCC1500): 4.58
- GI50 ([1]; cell line HCC1806): 4.07
- GI50 ([1]; cell line HCC1937): 4.88
- GI50 ([1]; cell line HCC1954): 5.64
- GI50 ([1]; cell line HCC2185): 4.33
- GI50 ([1]; cell line LY2): 3.78
- GI50 ([1]; cell line MDAMB134V): 4.00
- GI50 ([1]; cell line MDAMB157): 4.47
- GI50 ([1]; cell line MDAMB175V): 6.19
- GI50 ([1]; cell line MDAMB361): 4.71
- GI50 ([1]; cell line MDAMB415): 3.78
- GI50 ([1]; cell line MDAMB436): 3.99
- GI50 ([1]; cell line MDAMB453): 3.78
- GI50 ([1]; cell line MDAMB468): 4.02
- GI50 ([1]; cell line SKBR3): 4.92
- GI50 ([1]; cell line SUM52PE): 3.78
- GI50 ([1]; cell line SUM149PT): 5.74
- GI50 ([1]; cell line SUM159PT): 4.77
- GI50 ([1]; cell line SUM185PE): 3.78
- GI50 ([1]; cell line SUM1315MO): 5.60
- GI50 ([1]; cell line T47D): 4.74
- GI50 ([1]; cell line UACC893): 5.65
- GI50 ([1]; cell line ZR75B): 3.78
- GI50 ([1]; cell line ZR751): 3.78
- association of response with ERBB2 amplification [2]: positively associated with ERBB2 amplification
- Subtype specificity [2]: ERBB2AMP

From patent US10770169B2, “Method of providing a treatment to a subject based on a dynamic pathway map” (THE REGENTS OF THE UNIVERSITY OF CALIFORNIA, priority 2010, dated 2020)
